Source: patent publication US9980973B2, “Bicyclic heterocycle compounds and their uses in therapy” (ASTEX THERAPEUTICS LIMITED, priority 2012, dated 2018)
pEC50, pIC50: −log10 of the molar value. Counter-ions that a name gives are not always drawn. Like-named read-outs stand apart in the source and are kept apart here.

Tests used:
[1] = biological target: T1, BIR3 domain of human XIAP (Homo sapiens, UniProt P98170); assay: XIAP in vitro competitive displacement binding assay (fluorescence polarization); settings: for inhibition at 0.04 µM: 1 h, PI at 0.04 μM, read-out: Xiap IC50 or PI μM (PI); for IC50: plain number = IC50, average where more than one data point, read-out: Xiap IC50 or PI μM (IC50)
T1 construct: BIR3 domain of human XIAP (residues 252-350) fused to a His-tag; His-tag (cleaved yes); made in house; host or cells: Escherichia coli
T1 sequence (P98170 252-350): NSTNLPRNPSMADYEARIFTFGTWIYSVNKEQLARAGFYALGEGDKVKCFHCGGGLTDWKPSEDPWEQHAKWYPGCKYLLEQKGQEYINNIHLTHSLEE

[2] = test system: EVSA-T (human breast carcinoma); assay: Anti-proliferative activity, Alamar Blue assay, EVSA-T; format: cell-based; settings: for pEC50: Homo sapiens, EVSA-T
[3] = 72 h, EVSA-T cells, 72 hours, Alamar Blue, read-out: EVSA-T prolif
[4] = read-out: EC50 in EVSA-T cell line assays

Structure (SMILES)	inhibition at 0.04 µM [1]	pEC50 [2, 3]	pEC50 [2, 4]	EVSA-T prolif (% at concentration) ([2]; at 0.001 μM)	IC50 [1]	pIC50 ([1]; or at least 50% inhibition of the activity at 0.1 μM, read-out: IC50 in the XIAP assay)
C[C@@H]1CN(CC(=O)N2CC(C)(C)c3ncc(Cc4ccc(F)cc4)cc32)[C@@H](CN2C[C@@H](C)N[C@@H](C)C2)CN1 [Example 22, 2-[(2R,5R)-2-{[(3R,5S)-3,5-Dimethylpiperazin-1-yl]methyl}-5-methylpiperazin-1-yl]-1-{6-[(4-fluorophenyl)methyl]-3,3-dimethyl-1H,2H,3H-pyrrolo[3,2-b]pyridin-1-yl}ethan-1-one dihydrochloride]	40%	7.52	> 6.00			
C[C@@H]1CN(CC(=O)N2CC(C)(C)c3cnc(Cc4ccc(F)cc4)cc32)[C@@H](CN2[C@H](C)COC[C@H]2C)CN1 [Example 55, 2-[(2R,5R)-2-{[(3R,5R)-3,5-Dimethylmorpholin-4-yl]methyl}-5-methylpiperazin-1-yl]-1-{6-[(4-fluorophenyl)methyl]-3,3-dimethyl-1H,2H,3H-pyrrolo[3,2-c]pyridin-1-yl}ethan-1-one, dihydrochloride]	59%	9.64	> 6.00			
C[C@@H]1CN(CC(=O)N2CC(C)(C)c3ncc(Cc4ccc(F)cc4F)cc32)[C@@H](CN2[C@H](C)COC[C@H]2C)CN1 [Example 54, 1-{6-[(2,4-Difluorophenyl)methyl]-3,3-dimethyl-1H,2H,3H-pyrrolo[3,2-b]pyridin-1-yl}-2-[(2R,5R)-2-{[(3R,5R)-3,5-dimethylmorpholin-4-yl]methyl}-5-methylpiperazin-1-yl]ethan-1-one, dihydrochloride]	59%		> 6.00	96% at		
CCCC(F)(F)c1cc2c(cn1)C(C)(C)CN2C(=O)CN1C[C@@H](C)NC[C@@H]1CN1[C@H](C)COC[C@H]1C [Example 44, 1-[6-(1,1-Difluorobutyl)-3,3-dimethyl-1H,2H,3H-pyrrolo[3,2-c]pyridin-1-yl]-2-[2R,5R)-2-{[(3R,5R)-3,5-dimethylmorpholin-4-yl]methyl}-5-methylpiperazin-1-yl]ethan-1-one, dihydrochloride]	78%	9.00	> 6.00			
CCCC(F)(F)c1cc2c(cn1)C(C)(C)CN2C(=O)CN1C[C@@H](C)NC[C@@H]1CN1CCOC[C@@]1(C)CO (single isomer, unassigned) [Example 68, dihydrochloride]	69%	7.66	> 6.00			
CCCC(F)(F)c1cc2c(cn1)C(C)(C)CN2C(=O)CN1C[C@@H](C)NC[C@@H]1CN1CCOC[C@]1(C)CO (single isomer, unassigned) [Example 69, dihydrochloride]	71%	8.25	> 6.00			
CC1COCCN1C[C@H]1CN[C@H](C)CN1CC(=O)N1CC(C)(C)c2ccc(Cc3ccc(F)cc3)cc21 (stereo partly drawn) [Example 45, 1-{6-[(4-Fluorophenyl)methyl]-3,3-dimethyl-2,3-dihydro-1H-indol-1-yl}-2-[(2R,5R)-5-methyl-2-{[(3R)-3-methylmorpholin-4-yl]methyl}piperazin-1-yl]ethan-1-one, dihydrochloride]	52%	8.46	> 6.00			
C[C@@H]1CN(CC(=O)N2CC(C)(C)c3ncc(Cc4ccccc4)cc32)[C@@H](CN2[C@H](C)COC[C@H]2C)CN1 [Example 29, 1-{6-Benzyl-3,3-dimethyl-1H,2H,3H-pyrrolo[3,2-b]pyridin-1-yl}-2-[(2R,5R)-2-{[(3R,5R)-3,5-dimethylmorpholin-4-yl]methyl}-5-methylpiperazin-1-yl]ethan-1-one dihydrochloride]	47%	9.40	> 6.00			
C[C@@H]1CN(CC(=O)N2CC(C)(C)c3cnc(Cc4ccc(F)cc4F)cc32)[C@@H](CN2CCOC[C@@]2(C)CO)CN1 (single isomer, unassigned) [Example 67, dihydrochloride]	65%	8.43	> 6.00			
C[C@@H]1CN(CC(=O)N2CC(C)(C)c3ncc(Cc4ccc(F)cc4)cc32)[C@@H](CN2CC3CC2CO3)CN1 (stereo partly drawn) [Example 20, 1-{6-[(4-Fluorophenyl)methyl]-3,3-dimethyl-1H,2H,3H-pyrrolo[3,2-b]pyridin-1-yl}-2-[(2R,5R)-5-methyl-2-{2-oxa-5-azabicyclo[2.2.1]heptan-5-ylmethyl}piperazin-1-yl]ethan-1-one dihydrochloride]		8.55	> 6.00		0.14 µM	
COC[C@@H]1COCCN1C[C@H]1CN[C@H](C)CN1CC(=O)N1CC(C)(C)c2cnc(Cc3ccc(F)cc3)cc21 [Example 96, 1-{6-[(4-Fluorophenyl)methyl]-3,3-dimethyl-1H,2H,3H-pyrrolo[3,2-c]pyridin-1-yl}-2-[(2R,5R)-2-{[(3R)-3-(methoxymethyl)morpholin-4-yl]methyl}-5-methylpiperazin-1-yl]ethan-1-one dihydrochloride]	49%	8.77	> 6.00			
C[C@@H]1CN(CC(=O)N2CC(C)(C)c3cnc(Cc4ccc(F)cc4F)cc32)[C@@H](CN2CCOC[C@]2(C)CO)CN1 (single isomer, unassigned) [Example 66, dihydrochloride]	78%	9.10	> 6.00			
CC(=O)N1CCN(C[C@H]2CN[C@H](C)CN2CC(=O)N2CC(C)(C)c3ncc(Cc4ccc(F)cc4)cc32)[C@H](C)C1 [Example 52, 2-[(2R,5R)-2-{[(2R)-4-Acetyl-2-methylpiperazin-1-yl]methyl}-5-methylpiperazin-1-yl]-1-{6-[(4-fluorophenyl)methyl]-3,3-dimethyl-1H,2H,3H-pyrrolo[3,2-b]pyridin-1-yl}ethan-1-one, dihydrochloride]	49%	9.00	> 6.00			
COC[C@@]1(C)COCCN1C[C@H]1CN[C@H](C)CN1CC(=O)N1CC(C)(C)c2cnc(Cc3ccc(F)cc3F)cc21 [Example 98, 1-{6-[(2,4-Difluorophenyl)methyl]-3,3-dimethyl-1H,2H,3H-pyrrolo[3,2-c]pyridin-1-yl}-2-[(2R,5R)-2-{[(3S)-3-(methoxymethyl)-3-methylmorpholin-4-yl]methyl}-5-methylpiperazin-1-yl]ethan-1-one dihydrochloride]	62%	8.14	> 6.00			> 7.00
C[C@@H]1CN(CC(=O)N2CC(C)(C)c3ncc(C(O)c4cccc(F)c4F)cc32)[C@@H](CN2[C@H](C)COC[C@H]2C)CN1 (single isomer, unassigned) [Example 111, (R or S)-1-{6-[(2,3-Difluorophenyl)(hydroxy)meth-yl]-3,3-dimethyl-1H,2H,3H-pyrrolo[3,2-b]pyridin-1-yl}-2-[(2R,5R)-2-{[(3R,5R)-3,5-dimethylmorpholin-4-yl]methyl}-5-methylpiperazin-1-yl]ethan-1-one dihydrochloride]	45%	7.60	> 6.00			
CC(=O)N1CCN(C[C@H]2CN[C@H](C)CN2CC(=O)N2CC(C)(C)c3cnc(Cc4ccc(F)cc4)cc32)[C@H](C)C1 [Example 56, 2-[(2R,5R)-2-{[(2R)-4-Acetyl-2-methylpiperazin-1-yl]methyl}-5-methylpiperazin-1-yl]-1-{6-[(4-fluorophenyl)methyl]-3,3-dimethyl-1H,2H,3H-pyrrolo[3,2-c]pyridin-1-yl}ethan-1-one, dihydrochloride]	70%	9.38	> 6.00			
C[C@@H]1CN(CC(=O)N2CC(C)(C)c3nnc(Cc4ccc(F)cc4)cc32)[C@@H](CN2[C@H](C)COC[C@H]2C)CN1 [Example 87, 2-[(2R,5R)-2-{[(3R,5R)-3,5-Dimethylmorpholin-4-yl]methyl}-5-methylpiperazin-1-yl]-1-{3-[(4-fluorophenyl)methyl]-7,7-dimethyl-5H,6H,7H-pyrrolo[3,2-c]pyridazin-5-yl}ethan-1-one dihydrochloride]		9.18	> 6.00		0.14 µM	
CCCC(F)(F)c1cc2c(cn1)C(C)(C)CN2C(=O)CN1C[C@@H](C)NC[C@@H]1CN1CCN(C(C)=O)C[C@H]1C [Example 60, 2-[(2R,5R)-2-{[(2R)-4-Acetyl-2-methylpiperazin-1-yl]methyl}-5-methylpiperazin-1-yl]-1-[6-(1,1-difluorobutyl)-3,3-dimethyl-1H,2H,3H-pyrrolo[3,2-c]pyridin-1-yl]ethan-1-one, dihydrochloride]	74%	8.17	> 6.00			
C[C@@H]1CN(CC(=O)N2CC(C)(C)c3ncc(Cc4ccc(F)cc4)cc32)[C@@H](CN2CCOC[C@@]2(C)CO)CN1 [Example 51, 1-{6-[(4-Fluorophenyl)methyl]-3,3-dimethyl-1H,2H,3H-pyrrolo[3,2-b]pyridin-1-yl}-2-[(2R,5R)-2-{[(3R)-3-(hydroxymethyl)-3-methylmorpholin-4-yl]methyl}-5-methylpiperazin-1-yl]ethan-1-one, dihydrochloride]	44%	8.66	> 6.00			
C[C@@H]1CN(CC(=O)N2CC(C)(C)c3ncc(Cc4ccc(F)cc4)cc32)[C@@H](CN2CCOC[C@H]2CO)CN1 [Example 2, 1-{6-[(4-Fluorophenyl)methyl]-3,3-dimethyl-1H,2H,3H-pyrrolo[3,2-b]pyridin-1-yl}-2-[(2R,5R)-2-{[(3R)-3-(hydroxymethyl)morpholin-4-yl]methyl}-5-methylpiperazin-1-yl]ethan-1-one dihydrochloride]	40%	8.77	> 6.00			
